# In article PMC8157031, “Identification of Binding Regions of Bilirubin in the Ligand-Binding Pocket of the Peroxisome Proliferator-Activated Receptor-A (PPARalpha)” (Molecules, 2021):
# Positions count from the first letter of the chain named.
# What was measured:
# [1] = target: T1, bovine serum albumin (BSA) (Bos taurus, UniProt P02769); experiment: biliverdin autofluorescence dose-response (excitation […] nm); assay type: binding
# T1 construct: gene ALB
# PPARα [2] = target: T2, PPARα (Mus musculus, UniProt P23204, A333G); experiment: bilirubin autofluorescence with purified mutant; binding reduced by […]
# T2 construct: gene Ppara; full-length histidine-tagged mouse PPARα
# T2 sequence (P23204 1-468 A333G): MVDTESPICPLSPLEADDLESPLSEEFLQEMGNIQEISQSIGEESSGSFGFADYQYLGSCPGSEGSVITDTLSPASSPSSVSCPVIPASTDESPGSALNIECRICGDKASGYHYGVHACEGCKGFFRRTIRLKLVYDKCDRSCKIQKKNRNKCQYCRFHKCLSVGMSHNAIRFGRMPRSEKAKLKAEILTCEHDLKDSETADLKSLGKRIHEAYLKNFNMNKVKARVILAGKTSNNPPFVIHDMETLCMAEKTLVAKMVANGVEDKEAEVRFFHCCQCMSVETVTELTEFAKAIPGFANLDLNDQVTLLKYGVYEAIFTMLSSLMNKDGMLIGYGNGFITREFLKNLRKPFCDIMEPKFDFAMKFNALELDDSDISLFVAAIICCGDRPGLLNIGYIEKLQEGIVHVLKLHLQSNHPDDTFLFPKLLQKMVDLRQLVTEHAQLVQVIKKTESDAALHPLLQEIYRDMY
# [3] = target: T1, bovine serum albumin (BSA); experiment: bilirubin autofluorescence titration (excitation […] nm); assay type: binding
# PPARα [4] = target: T3, PPARα (Mus musculus, UniProt P23204, T283G); experiment: bilirubin autofluorescence with purified mutant; binding reduced by […]
# T3 construct: gene Ppara; full-length histidine-tagged mouse PPARα
# T3 sequence (P23204 1-468 T283G): T2 sequence (P23204 1-468 A333G) with T283G, G333A
# PPARα [5] = target: T4, PPARα (Mus musculus, UniProt P23204); experiment: bilirubin autofluorescence titration with purified His-PPARα; assay type: binding
# T4 construct: gene Ppara; full-length histidine-tagged mouse PPARα
# T4 sequence (P23204 1-468): T2 sequence (P23204 1-468 A333G) with G333A
# T1 sequence (P02769 25-607): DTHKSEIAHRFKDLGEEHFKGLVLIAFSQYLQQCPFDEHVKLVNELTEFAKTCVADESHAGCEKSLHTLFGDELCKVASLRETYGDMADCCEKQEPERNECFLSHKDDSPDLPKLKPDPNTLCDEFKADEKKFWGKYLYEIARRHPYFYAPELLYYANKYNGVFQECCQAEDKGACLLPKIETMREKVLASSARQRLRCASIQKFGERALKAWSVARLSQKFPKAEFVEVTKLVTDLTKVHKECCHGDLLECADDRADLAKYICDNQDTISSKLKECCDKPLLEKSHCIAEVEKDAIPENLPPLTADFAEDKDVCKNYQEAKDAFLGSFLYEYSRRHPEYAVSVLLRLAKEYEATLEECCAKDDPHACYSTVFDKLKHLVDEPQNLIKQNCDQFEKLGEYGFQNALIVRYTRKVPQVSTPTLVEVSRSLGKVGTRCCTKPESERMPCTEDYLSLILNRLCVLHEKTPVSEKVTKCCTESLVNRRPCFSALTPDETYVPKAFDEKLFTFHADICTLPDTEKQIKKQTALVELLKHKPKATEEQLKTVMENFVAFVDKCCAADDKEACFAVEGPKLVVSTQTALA
Compound,biliverdin autofluorescence dose-response (excitation 440 nm) [1],% reduction of binding (PPARα [2]),Kd [3] [µM],% reduction of binding (PPARα [4]),Kd (PPARα [5]) [µM]
"C=CC1=C(C)/C(=C/C2=NC(=C\c3[nH]c(/C=C4\NC(=O)C(C)=C4C=C)c(C)c3CCC(=O)O)/C(CCC(=O)O)=C2C)NC1=O [BV, biliverdin]",The results in Figure 1C show a dose-dependent increase in fluorescence for biliverdin bound to albumin,,,,
"C=CC1=C(C)/C(=C/c2[nH]c(Cc3[nH]c(/C=C4\NC(=O)C(C)=C4C=C)c(C)c3CCC(=O)O)c(CCC(=O)O)c2C)NC1=O [BR, bilirubin]",,17.0 % reduction of binding,11.1,11.4 % reduction of binding,5.13
